{"source": "patent US20040028749A1", "about": "“Treating inflammation and associated complications” (priority 2000, published 2004)", "key": {"EPO": {"target": "T1, EPO (Sus scrofa, UniProt P80550)", "T1 construct": "from tissue; host or cells: porcine whole blood (leukocytes/eosinophils)", "T1 sequence (P80550 143-704)": "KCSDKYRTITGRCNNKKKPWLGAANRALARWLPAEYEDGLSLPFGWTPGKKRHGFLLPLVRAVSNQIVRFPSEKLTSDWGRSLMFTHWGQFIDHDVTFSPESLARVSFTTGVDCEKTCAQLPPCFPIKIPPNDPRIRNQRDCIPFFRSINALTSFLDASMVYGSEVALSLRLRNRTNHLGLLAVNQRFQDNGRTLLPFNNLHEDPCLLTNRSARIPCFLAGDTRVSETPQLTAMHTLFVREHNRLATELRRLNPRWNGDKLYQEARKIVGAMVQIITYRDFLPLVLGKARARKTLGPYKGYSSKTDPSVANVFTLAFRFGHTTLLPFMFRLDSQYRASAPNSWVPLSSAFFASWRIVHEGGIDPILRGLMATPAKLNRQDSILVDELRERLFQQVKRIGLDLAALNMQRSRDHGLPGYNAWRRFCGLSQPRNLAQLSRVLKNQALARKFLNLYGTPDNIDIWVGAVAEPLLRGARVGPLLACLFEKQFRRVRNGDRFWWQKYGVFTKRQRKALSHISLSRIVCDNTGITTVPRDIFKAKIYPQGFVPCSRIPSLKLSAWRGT", "experiment": "Stopped-flow kinetics of NO with EPO compounds I and II", "format": "biochemical", "conditions": "10 μM H2O2", "method": "[…] EPO was isolated from porcine whole blood obtained fresh at the slaughterhouse as described by Jorg et al. (1982) Biochim Biophys Acta 701:185-191. EPO was assayed by guaiacol oxidation (see Klebanoff et al. (1984) Methods Enzymol. 105:399-403). […] The concentration of the MPO dimer was calculated as half the indicated concentration of heme-like chromophore. Bovine LPO was obtained from Worthington Biochemistry Corporation (Lakewood, N.J.) and used without further purification.\nStopped-flow spectroscopy was used to investigate how NO interacts with intermediate forms of EPO and LPO during steady-state catalysis. […] The time courses for the formation and decay of compound II of both EPO and LPO in the absence of NO were examined by monitoring the absorbance change at 445 nm for EPO and at 430 nm for LPO. For both enzymes, the changes in absorbance that took place in the first 2 seconds of the reactions are shown and are attributed to the buildup of compound II. […] The subsequent decreases in absorbance at 455 and 430 nm observed for both enzymes were also fit to a single-exponential function with a rate constant of 0.005 s^−1 for EPO and 0.0005 s^−1 for LPO. […]\nThe addition of NO to reaction mixtures of EPO or LPO results in dramatic effects on the rates of compound II buildup, duration, and decay, as assessed by stopped-flow spectroscopy. […]"}, "tracheal rings": {"tested_on": "tracheal rings", "experiment": "NO-mediated relaxation of preconstricted tracheal rings", "design": "species or system rat", "conditions": "absence of peroxidases", "source_text": "Normal rats were sacrificed and their trachea removed. Under the dissecting microscope, each trachea was freed of adventitia and fat tissue. A cylindrical airway segment of 3 mm length was isolated from the midtrachea of each animal and placed in a modified Krebs-Henseleit (KH) solution of the following composition (mM): NaCl, 118.2; NaHCO3, […], 4.6; KH2PO4, 1.2; MgSO4, 1.2; CaCl2 and dextrose, […], with a pH adjusted to 7.4. The solution was continuously aerated with 5% […] balanced with O2. […] Generated forces were continuously monitored and recorded on a rectilinear chart recorder. […]\nA cumulative concentration-response curve to bethanecol (3×10^−8 to 10^−3 M) was obtained for each cylinder. The concentration of bethanecol that elicited 50-75% of maximal response (ED 50-75) was determined. […] The percent relaxation from the precontracted state was calculated for each cylinder. The percent relaxation in response to EFS was calculated from the reduction in tension (in grams) in relation to baseline tension in the precontracted state, each tracheal segment serving as its own control (before and after EFS exposure). […]\nThe effect of peroxidases on the concentration dependence of NO-mediated relaxation of preconstricted tracheal rings was quantified. […]"}}}
{"compound": "[N]=O", "note": "[NO, nitric oxide]", "values": [{"measurement": "enhancement of rate of EPO compound II accumulation", "setting": "EPO", "value": "~25", "unit": "fold"}, {"measurement": "NO concentration at which relaxation reached a maximum", "setting": "tracheal rings", "value": "~4", "unit": "µM"}]}
